Patent US11091428B2 (HAPLOGEN GMBH, priority 2016, dated 2021)

Target: T1, PLA2G16 (Homo sapiens, UniProt P53816)
T1 construct: Hexa-His (N); made in house; host or cells: E. coli BL21(DE3)
T1 sequence (P53816 1-162): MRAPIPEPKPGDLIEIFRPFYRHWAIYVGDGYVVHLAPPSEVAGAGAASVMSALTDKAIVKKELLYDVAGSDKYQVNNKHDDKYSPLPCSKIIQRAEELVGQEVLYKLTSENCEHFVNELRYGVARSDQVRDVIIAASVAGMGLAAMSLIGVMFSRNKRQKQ
Test: Enzyme activity assay for PLA2G16 (Red/Green BODIPY PC-A2 fluorescence)
Assay type: biochemical
Conditions: His-tagged PLA2G16, 4 min pre-incubation, 2 nM to 50 μM; read-out: IC50 values of the compounds determined in the enzyme activity assay for PLA2G16
From the text: A cDNA for PLA2G16(NM_007069) was custom-synthesized by Genscript (Piscataway, USA) and inserted into a pET-based bacterial expression vector [Moffatt, B. A. and Studier, F. W. (1986) J. Mol. Biol. 189, 113-130; Rosenberg, A. H., Lade, B. N., Chui, D., Lin, S., Dunn, J. J., and Studier, F. W. (1987) Gene 56, 125-135], enabling the expression of N-terminally Hexa-His-tagged PLA2G16. E. coli BL21(DE3) (Agilent) were transformed with pET-His-PLA2G16according to the manufacturer's instructions and plated on Carbenicillin-containing agar plates (final concentration: 100 μg/mL). A single clone was in occulated in 100 mL LB medium supplemented with 100 μg/mL Carbenicillin and the in occulated culture was grown at 37° C. overnight in a rotary shaker. On the next day, the bacterial culture was diluted in LB medium supplemented with 100 μg/mL Carbenicillin (30 mL overnight culture in 800 mL total culture volume). Bacteria were grown at 37° C. until the OD600 reached 0.6. Gene expression was induced by addition of 1 mM isopropyl-β-D-thiogalactopyranosid (IPTG) for 2 h at 18° C. Subsequently, bacteria were harvested by centrifugation (15 min; 10,000×g; 4° C.) and frozen at −80° C. The bacterial pellet was resuspended in Buffer A (50 mM Tris/HCl pH 7.5, 500 mM NaCl, 5% glycerol, 5 mM β-Mercaptoethanol and 1 mM PMSF) and lysed by addition of 1 mg/mL lysozyme (Sigma Aldrich) and 100 μg/mL DNasel-(Roche). The sample was incubated at 30° C. for 30 min to allow lysis to occur. Then, the lysate was cleared by centrifugation (15,000×g, 15 min, 4° C.) and incubated with 1.5 mL Ni-NTA agarose suspension (Qiagen) for 60 min at 4° C. The Ni-NTA agarose was washed with 10 mL Buffer A. Bound protein was eluted by applying a manual gradient of Buffer A supplemented with increasing concentrations of imidazole (Sigma Aldrich; 25/50/75/100/250 mM). Purified fractions were analyzed by SDS-PAGE followed by Coomassie staining to assess the purity.
Activity of the protein was assessed as follows: Red/Green BODIPY® PC-A2 (Invitrogen, 1 mM in DMSO) was mixed with equal volumes of 1,2-Dioleoyl-sn-glycero-3-phosphocholine (DOPC; Sigma Aldrich, 10 mM in Ethanol) and 1,2-Dioleoyl-sn-glycero-3-phospho-rac-(1-glycerol) (DOPG; Sigma Aldrich, 10 mM in Ethanol) and 0.5 volumes of Cholesterol (CHOL; Sigma Aldrich, 10 mM in Ethanol) and vortexed for 5 s. The mixture (Red/Green BODIPY® PC-A2/DOPC/DOPG/CHOL) was diluted 1:91.4 in activity assay buffer (50 mM Tris/HCl pH 8.5, 100 mM NaCl) using a small-orifice pipette tip under constant vortexing. In the following, this preparation will be referred to as the “substrate solution”.
In order to evaluate their inhibitory potential, compounds were dissolved at 10 mM concentration in DMSO and directly spotted into assay plates (Corning, Cat. No. 3576) using acoustic liquid transfer (Labcyte Echo 525). Each compound was spotted at increasing concentrations, ranging from 2 nM to 50 μM (concentration in the final assay volume). 50 μl of PLA2G16 enzyme solution (diluted in activity buffer, supplemented with 5 mM L-Glutathione; Sigma Aldrich) was pre-incubated with compounds for 4 min., followed by addition of 50 μl of substrate solution. Fluorescence was recorded immediately after substrate addition for a total time of 10 min. using a SpectraMax M5 multimode reader (Excitation wavelength: 480 nm, emission wavelength: 530 nm). The relative increase of fluorescence over time is referred to as the enzyme activity. Half-maximal inhibitory concentrations (IC50) were derived by non-linear regression analysis using the drc package in R (R Development. Core Team, 2005).

Q: `COc1ccccc1N(C(C)=O)C(C)C(=O)C(=O)NCc1cccc(Cl)c1` (stereo not drawn) [FP 185, N-[(3-Chlorophenyl)methyl]-3-[N-(2-methoxyphenyl)acetamido]-2-oxobutanamide] was tested. Which IC50 did it give?
A: Its IC50 is less than 1000 nM.

Q: For `CC(C(=O)C(=O)NCC1CC1)N(CC1CCOCC1)S(C)(=O)=O` (stereo not drawn) [FP 223, N-(Cyclopropylmethyl)-3-{N-[(oxan-4-yl)methyl]methanesulfonamido}-2-oxobutanamide], which IC50 is on record?
A: Its IC50 is 10000 to 50000 nM.

Q: `CC(C(=O)C(=O)NCC1CCCCC1)N1CCCCC1=O` (stereo not drawn) [FP 186, N-(Cyclohexylmethyl)-2-oxo-3-(2-oxopiperidin-1-yl)butanamide] was tested. Which IC50 did it give?
A: The IC50 was 10000 to 50000 nM.

Q: For `COc1ccccc1N(C=O)C(C)C(=O)C(=O)NCc1cc(Cl)cc(Cl)c1` (stereo not drawn) [FP 83, N-[(3,5-Dichlorophenyl)methyl]-3-[N-(2-methoxyphenyl)formamido]-2-oxobutanamide], which IC50 is on record?
A: Its IC50 is less than 1000 nM.

Q: How did the IC50 turn out when `COc1ccccc1N(C=O)C(C)C(=O)C(=O)NCc1cccc(C)c1` (stereo not drawn) [FP 87, 3-[N-(2-Methoxyphenyl)formamido]-N-[(3-methylphenyl)methyl]-2-oxo butanamide] was run?
A: The IC50 was less than 1000 nM.

Q: `COc1ccccc1N(C=O)CC(=O)C(=O)NCc1cccc(Cl)c1` [FP 19, N-[(3-Chlorophenyl)methyl]-3-[N-(2-methoxyphenyl)formamido]-2-oxopropanamide] was tested. Which IC50 did it give?
A: Its IC50 is less than 1000 nM.

Q: How did the IC50 turn out when `COc1ccccc1N1C(=O)CC[C@H]1C(=O)C(=O)NCC1CC1` [FP 140, N-(cyclopropylmethyl)-2-[(2S)-1-(2-methoxyphenyl)-5-oxopyrrolidin-2-yl]-2-oxoacetamide] was run?
A: The IC50 was 10000 to 50000 nM.

Q: How did the IC50 turn out when `CC(C)N(C=O)C(C)C(=O)C(=O)NC(C)(C)c1cccc(Cl)c1` (stereo not drawn) [FP 26, N-[2-(3-Chlorophenyl)propan-2-yl]-2-oxo-3-[N-(propan-2-yl)formamido]butanamide] was run?
A: The IC50 was 1000 to 10000 nM.

Q: For `COc1cccc(CNC(=O)C(=O)C(C)N(C=O)c2ccccc2OC)c1` (stereo not drawn) [FP 85, 3-[N-(2-Methoxyphenyl)formamido]-N-[(3-methoxyphenyl)methyl]-2-oxobutanamide], which IC50 is on record?
A: The IC50 was less than 1000 nM.

Q: For `CC(C(=O)C(=O)NCc1cccc(Cl)c1)N(C=O)C1CCCCC1` (stereo not drawn) [FP 17, N-[(3-Chlorophenyl)methyl]-3-(N-cyclohexylformamido)-2-oxobutanamide], which IC50 is on record?
A: The IC50 was less than 1000 nM.

Q: How did the IC50 turn out when `CC(C(=O)C(=O)NCc1cccc(Cl)c1)N(C=O)Cc1ccccc1` (stereo not drawn) [FP 20, 3-(N-Benzylformamido)-N-[(3-chlorophenyl)methyl]-2-oxobutanamide] was run?
A: Its IC50 is less than 1000 nM.

Q: `COc1ccccc1N(C=O)C(C)C(=O)C(=O)NCC1CCOCC1` (stereo not drawn) [FP 103, 3-[N-(2-Methoxyphenyl)formamido]-m[(oxan-4-yl)methyl]-2-oxobutanamide] was tested. Which IC50 did it give?
A: The IC50 was less than 1000 nM.

Q: For `COc1ccccc1N(C=O)C(C)C(=O)C(=O)N1CCc2ccc(Cl)cc2C1` (stereo not drawn) [FP 76, N-[4-(7-Chloro-1,2,3,4-tetrahydroisoquinolin-2-yl)-3,4-dioxobutan-2-yl]-N-(2-methoxy-phenyl)formamide], which IC50 is on record?
A: The IC50 was 10000 to 50000 nM.

Q: `Cc1cc(C(=O)N(C)C(C)C(=O)C(=O)NCC2CCCCC2)no1` (stereo not drawn) [FP 147, N-(Cyclohexylmethyl)-3-[N-methyl-1-(5-methyl-1,2-oxazol-3-yl)formamido]-2-oxobutanamide] was tested. Which IC50 did it give?
A: Its IC50 is less than 1000 nM.

Q: How did the IC50 turn out when `COc1ccccc1N(C=O)C(C)(C)C(=O)C(=O)NCc1cccc(Cl)c1` [FP 9, N-[(3-Chlorophenyl)methyl]-3-[N-(2-methoxyphenyl)formamido]-3-methyl-2-oxobutanamide] was run?
A: The IC50 was 1000 to 10000 nM.

Q: Which IC50 does the source give for `COc1ccccc1N(C=O)C(C)C(=O)C(N)=O` (stereo not drawn) [FP 14, 3-[N-(2-Methoxyphenyl)formamido]-2-oxobutanamide] here?
A: Its IC50 is 1000 to 10000 nM.

Q: For `CC(C(=O)C(=O)NCC1CC1)N(C=O)C1CCC(F)(F)CC1` (stereo not drawn) [FP 194, N-(Cyclopropylmethyl)-3-[N-(4,4-difluorocyclohexyl)formamido]-2-oxobutanamide], which IC50 is on record?
A: The IC50 was less than 1000 nM.

Q: How did the IC50 turn out when `COc1ccccc1N1C(=O)CC[C@H]1C(=O)C(=O)NCc1cccc(Cl)c1` [FP 139, N-[(3-Chlorophenyl)methyl]-2-[(2S)-1-(2-methoxyphenyl)-5-oxopyrrolidin-2-yl]-2-oxoacetamide] was run?
A: The IC50 was 1000 to 10000 nM.

Q: For `CC(C(=O)C(=O)NCC1CCCCC1)N(C)C(=O)CN(C)C` (stereo not drawn) [FP 177, N-(Cyclohexylmethyl)-3-[2-(dimethylamino)-N-methylacetamido]-2-oxobutanamide], which IC50 is on record?
A: Its IC50 is 1000 to 10000 nM.

Q: With `COc1ccccc1N(C=O)C(C)C(=O)C(=O)NC(C)c1cccc(Cl)c1` (stereo not drawn) [FP 84, N-[1-(3-Chlorophenyl)ethyl]-3-[N-(2-methoxyphenyl)formamido]-2-oxobutanamide] as the compound, how does the IC50 read?
A: Its IC50 is less than 1000 nM.

Q: How did the IC50 turn out when `COc1ccccc1N(C=O)C(C(=O)C(=O)NCc1cccc(Cl)c1)c1ccccc1` (stereo not drawn) [FP 10, N-[(3-Chlorophenyl)methyl]-3-[N-(2-methoxyphenyl)formamido]-2-oxo-3-phenylpropanamide] was run?
A: The IC50 was 1000 to 10000 nM.

Q: For `COc1ccccc1N(C=O)C(C)C(=O)C(=O)N(C)Cc1cccc(Cl)c1` (stereo not drawn) [FP 77, N-[(3-Chlorophenyl)methyl]-3-[N-(2-methoxyphenyl)formamido]-N-methyl-2-oxobutanamide], which IC50 is on record?
A: Its IC50 is less than 1000 nM.

Q: How did the IC50 turn out when `COc1cccc(N(C=O)C(C)C(=O)C(=O)NCc2cccc(Cl)c2)c1` (stereo not drawn) [FP 4, N-[(3-Chlorophenyl)methyl]-3-[N-(3-methoxyphenyl)formamido]-2-oxo butanamide] was run?
A: Its IC50 is less than 1000 nM.

Q: Which IC50 does the source give for `CC(C(=O)C(=O)NCc1ccccc1)N(C=O)C1CCCCC1` (stereo not drawn) [FP 113, N-Benzyl-3-(N-cyclohexylformamido)-2-oxobutanamide] here?
A: Its IC50 is less than 1000 nM.

Q: `COc1ccccc1N(C=O)[C@H](C)C(=O)C(=O)NCc1cccc(Cl)c1` (single isomer, unassigned) [FP 2] was tested. Which IC50 did it give?
A: Its IC50 is less than 1000 nM.

Q: Which IC50 does the source give for `CC(=O)NCCCOCCCCOCCCNC(=O)C(=O)C1CCC(=O)N1Cc1ccc(Cl)cc1` (stereo not drawn) [FP 329, 2-{1-[(4-Chlorophenyl)methyl]-5-oxopyrrolidin-2-yl}-N-{3-[4-(3-acetamidopropoxy)butoxy]propyl}-2-oxoacetamide] here?
A: Its IC50 is less than 1000 nM.

Q: How did the IC50 turn out when `CC(C)N(C=O)C(C)C(=O)C(=O)NCc1cccc(Cl)c1` (stereo not drawn) [FP 21, N-[(3-Chlorophenyl)methyl]-2-oxo-3-[N-(propan-2-yl)formamido]butanamide] was run?
A: Its IC50 is less than 1000 nM.

Q: Which IC50 does the source give for `CC(C(=O)C(=O)NCc1cccc(Cl)c1)N(C=O)c1ccccc1` (stereo not drawn) [FP 6, N-[(3-Chlorophenyl)methyl]-2-oxo-3-(N-phenylformamido)butanamide] here?
A: The IC50 was less than 1000 nM.

Q: With `C[C@@H](O)CNC(=O)C(=O)C1CCC(=O)N1Cc1ccc(Cl)cc1` (stereo partly drawn) [FP 259, 2-{1-[(4-Chlorophenyl)methyl]-5-oxopyrrolidin-2-yl}-N-[(2R)-2-hydroxypropyl]-2-oxoacetamide] as the compound, how does the IC50 read?
A: Its IC50 is less than 1000 nM.

Q: For `COc1ccccc1NC(=O)C(=O)[C@H](C)N(C=O)c1ccccc1OC` [FP 82, (3S)—N-(2-Methoxyphenyl)-3-[N-(2-methoxyphenyl)formamido]-2-oxobutanamide], which IC50 is on record?
A: The IC50 was 1000 to 10000 nM.

Q: `COc1ccccc1N(C=O)C(C)C(=O)C(=O)NCc1ccccc1Cl` (stereo not drawn) [FP 86, N-[(2-Chlorophenyl)methyl]-3-[N-(2-methoxyphenyl)formamido]-2-oxobutanamide] was tested. Which IC50 did it give?
A: Its IC50 is less than 1000 nM.

Q: How did the IC50 turn out when `COc1ccc(N(C=O)C(C)C(=O)C(=O)NCc2cccc(Cl)c2)cc1` (stereo not drawn) [FP 5, N-[(3-Chlorophenyl)methyl]-3-[N-(4-methoxyphenyl)formamido]-2-oxobutanamide] was run?
A: The IC50 was less than 1000 nM.

Q: With `CC(NC(=O)c1ccc(F)cc1)C(=O)C(=O)NCC1CC1` (stereo not drawn) [FP 153, N-(Cyclopropylmethyl)-3-[(4-fluorophenyl)formamido]-2-oxobutanamide] as the compound, how does the IC50 read?
A: The IC50 was 1000 to 10000 nM.
